Data set [1] can be described thus: Reactivity of trans-cyclooctene derivatives: competition experiment. Conditions: reference trans-cyclooct-4-ene-1-ol (axial isomer). As for the experimental part:
A competition experiment was performed to determine the reactivity ratio of a specific trans-cyclooctene derivative and trans-cyclooct-4-ene-1-ol (axial isomer) (that was chosen as the reference), in the inverse-electron demand Diels-Alder reaction with bis(2-pyridyl)-1,2,4,5-tetrazine.
This mixture was diluted with water (0.45 mL). Subsequently, a solution of bis(2-pyridyl)-1,2,4,5-tetrazine (6.25×10^−8 mol) in a mixture of acetonitrile (0.05 mL) and water (0.45 mL) was slowly added while stirring vigorously. After addition, the mixture was stirred for an additional 5 min. The conversion of both trans-cyclooctene derivatives was determined by HPLC-MS/PDA analysis, and from these conversions, the reactivity ratio (R=k2,TCO/k2,Ref) of the specific trans-cyclooctene derivative was calculated using the mathematical procedure from Ingold and Shaw (J. Chem. Soc., 1927, 2918-2926).

Data set [2] is described as follows: Stability of trans-cyclooctene derivatives in PBS. As to conditions: PBS buffer.
Procedure: 10 μL of a solution of the specific trans-cyclooctene derivative in dioxane (25 mM) was diluted with PBS buffer (3 mL), and this solution was stored at 20° C. in the dark.
The fate of the TCO compound was monitored by HPLC-MS analysis, and an estimation of the half-life time was made based on the release of the model prodrug.

The results in this text go back to patent US20160151505A1 (KONINKLIJKE PHILIPS N.V., priority 2011, published 2016).

SMILES strings stand for the structures.

For orientation: half-life means the time needed for the level to fall by half in the phase considered.

In the case of `OC1CC/C=C/CCC1` (stereo not drawn) [axial isomer, trans-cyclooct-4-ene-1-ol, reference compound], in data set [1], the “reactivity ratio** (R = k2,TCO/k2,Ref)” value is reported as 1. Moreover, the half-life at 83 µM in data set [2] is > 72 h.
